Laboratory results: doi:10.1101/2024.08.13.607785v1 (biorxiv, 2024)
Read-outs that look alike come from different tables or passages of the source. Blank lines part the entries; values can stand above or below the compound they belong to.

Key:
Test in all cases: biochemical
Set-up in all cases: species or system human cell line lysate
[1] = target: Isoform 4 of Serine/threonine-protein kinase PAK 4 ; PAK4 ; O96013-4 (Homo sapiens, UniProt O96013)
[2] = target: Tyrosine-protein kinase Fes/Fps ; FES ; P07332 (Homo sapiens, UniProt P07332)
[3] = target: Phosphatidylinositol 4-kinase alpha ; PI4KA ; P42356 (Homo sapiens, UniProt P42356)
[4] = target: Mitogen-activated protein kinase kinase kinase 12 ; MAP3K12 ; Q12852 (Homo sapiens, UniProt Q12852)
[5] = target: Wee1-like protein kinase ; WEE1 ; P30291 (Homo sapiens, UniProt P30291)
[6] = target: Isoform 2 of Tyrosine-protein kinase Fyn ; FYN ; P06241-2 (Homo sapiens, UniProt P06241)
[7] = target: Serine/threonine-protein kinase Chk1 ; CHEK1 ; O14757 (Homo sapiens, UniProt O14757)
[8] = target: Beta-adrenergic receptor kinase 2 ; GRK3 ; P35626 (Homo sapiens, UniProt P35626)
[9] = target: MAP/microtubule affinity-regulating kinase 3 ; MARK3 ; P27448 (Homo sapiens, UniProt P27448)
[10] = target: Serine/threonine-protein kinase 17B ; STK17B ; O94768 (Homo sapiens, UniProt O94768)
[11] = target: Serine/threonine-protein kinase pim-1 ; PIM1 ; P11309 (Homo sapiens, UniProt P11309)
[12] = target: Tyrosine-protein kinase FRK ; FRK ; P42685 (Homo sapiens, UniProt P42685)
[13] = target: Serine/threonine-protein kinase 35 ; STK35 ; Q8TDR2 (Homo sapiens, UniProt Q8TDR2)
[14] = target: Isoform 3 of Mitogen-activated protein kinase 8 ; MAPK8 ; P45983-3 (Homo sapiens, UniProt P45983)
[15] = target: Tyrosine-protein kinase Fgr ; FGR ; P09769 (Homo sapiens, UniProt P09769)
[16] = target: Isoform 2 of Focal adhesion kinase 1 ; PTK2 ; Q05397-2 (Homo sapiens, UniProt Q05397)
[17] = target: Vascular endothelial growth factor receptor 3 ; FLT4 ; P35916 (Homo sapiens, UniProt P35916)
[18] = target: T1, Serine/threonine-protein kinase NLK ; NLK ; Q9UBE8 (Homo sapiens, UniProt Q9UBE8)
T1 sequence (Q9UBE8 1-527): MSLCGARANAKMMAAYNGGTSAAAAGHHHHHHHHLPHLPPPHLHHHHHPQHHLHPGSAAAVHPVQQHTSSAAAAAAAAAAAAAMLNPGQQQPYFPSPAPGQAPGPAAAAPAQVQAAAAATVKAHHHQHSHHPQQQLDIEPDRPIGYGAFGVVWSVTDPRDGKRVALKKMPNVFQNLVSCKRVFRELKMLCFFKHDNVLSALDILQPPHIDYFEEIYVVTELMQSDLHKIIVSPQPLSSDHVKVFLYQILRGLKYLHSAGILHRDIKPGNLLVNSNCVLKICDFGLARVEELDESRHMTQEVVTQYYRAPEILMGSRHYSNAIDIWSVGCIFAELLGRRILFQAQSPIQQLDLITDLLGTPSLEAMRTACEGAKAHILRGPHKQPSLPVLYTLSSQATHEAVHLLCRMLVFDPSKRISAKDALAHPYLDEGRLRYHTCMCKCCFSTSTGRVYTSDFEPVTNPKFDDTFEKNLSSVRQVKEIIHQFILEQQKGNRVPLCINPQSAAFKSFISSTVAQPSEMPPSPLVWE

[19] = target: Mitogen-activated protein kinase kinase kinase kinase 5 ; MAP4K5 ; Q9Y4K4 (Homo sapiens, UniProt Q9Y4K4)
[20] = target: Isoform 2 of Protein-tyrosine kinase 2-beta ; PTK2B ; Q14289-2 (Homo sapiens, UniProt Q14289)
[21] = read-out: BAY-1251152 (10 µM) / %Intensity relative to DMSO
[22] = read-out: BAY-1143572 (10 µM) / %Intensity relative to DMSO

Isoform 3 of Mitogen-activated protein kinase 8 ; MAPK8 ; P45983-3, sequence (P45983 whole entry, canonical isoform): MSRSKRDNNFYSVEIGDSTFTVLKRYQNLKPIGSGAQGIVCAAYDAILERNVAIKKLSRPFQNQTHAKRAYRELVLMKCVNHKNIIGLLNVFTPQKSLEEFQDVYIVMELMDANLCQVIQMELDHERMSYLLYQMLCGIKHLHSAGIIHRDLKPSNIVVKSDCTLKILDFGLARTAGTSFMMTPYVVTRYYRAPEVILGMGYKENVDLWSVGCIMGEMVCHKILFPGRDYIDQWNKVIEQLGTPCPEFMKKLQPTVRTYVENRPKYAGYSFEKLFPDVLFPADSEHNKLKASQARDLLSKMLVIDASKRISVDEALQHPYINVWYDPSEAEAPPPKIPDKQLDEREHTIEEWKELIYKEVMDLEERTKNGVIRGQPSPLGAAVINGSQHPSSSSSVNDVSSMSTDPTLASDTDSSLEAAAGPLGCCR
Serine/threonine-protein kinase 35 ; STK35 ; Q8TDR2, sequence (Q8TDR2 whole entry, canonical isoform, one chain of several): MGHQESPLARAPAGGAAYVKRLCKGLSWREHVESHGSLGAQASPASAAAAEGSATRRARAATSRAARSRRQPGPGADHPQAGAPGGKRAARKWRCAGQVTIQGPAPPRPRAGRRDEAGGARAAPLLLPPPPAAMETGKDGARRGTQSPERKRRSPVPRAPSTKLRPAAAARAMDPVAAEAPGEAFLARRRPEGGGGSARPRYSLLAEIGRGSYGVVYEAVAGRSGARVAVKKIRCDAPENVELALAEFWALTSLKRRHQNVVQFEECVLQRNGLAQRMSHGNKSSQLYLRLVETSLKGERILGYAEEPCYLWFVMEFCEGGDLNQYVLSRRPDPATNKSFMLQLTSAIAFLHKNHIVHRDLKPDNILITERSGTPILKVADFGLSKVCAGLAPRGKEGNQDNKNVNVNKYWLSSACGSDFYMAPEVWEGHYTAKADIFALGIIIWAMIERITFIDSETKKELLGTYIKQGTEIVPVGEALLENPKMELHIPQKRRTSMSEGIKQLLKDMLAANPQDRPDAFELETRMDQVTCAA
Isoform 2 of Tyrosine-protein kinase Fyn ; FYN ; P06241-2, sequence (P06241 whole entry, canonical isoform): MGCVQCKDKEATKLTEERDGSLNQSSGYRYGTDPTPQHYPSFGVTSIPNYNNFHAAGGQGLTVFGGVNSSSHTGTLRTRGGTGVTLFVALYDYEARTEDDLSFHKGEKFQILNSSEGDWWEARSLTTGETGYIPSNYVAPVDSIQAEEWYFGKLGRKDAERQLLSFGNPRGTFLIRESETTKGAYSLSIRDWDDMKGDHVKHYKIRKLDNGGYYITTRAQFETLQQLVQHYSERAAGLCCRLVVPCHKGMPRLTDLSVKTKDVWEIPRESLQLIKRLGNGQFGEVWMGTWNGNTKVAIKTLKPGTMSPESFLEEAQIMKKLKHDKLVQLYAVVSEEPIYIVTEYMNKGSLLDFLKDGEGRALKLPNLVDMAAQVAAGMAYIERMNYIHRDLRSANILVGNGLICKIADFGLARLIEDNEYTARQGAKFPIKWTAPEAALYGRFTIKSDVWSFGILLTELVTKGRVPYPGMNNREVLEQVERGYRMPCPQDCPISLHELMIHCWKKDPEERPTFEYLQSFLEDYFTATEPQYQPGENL
Serine/threonine-protein kinase pim-1 ; PIM1 ; P11309, sequence (P11309 whole entry, one chain of several): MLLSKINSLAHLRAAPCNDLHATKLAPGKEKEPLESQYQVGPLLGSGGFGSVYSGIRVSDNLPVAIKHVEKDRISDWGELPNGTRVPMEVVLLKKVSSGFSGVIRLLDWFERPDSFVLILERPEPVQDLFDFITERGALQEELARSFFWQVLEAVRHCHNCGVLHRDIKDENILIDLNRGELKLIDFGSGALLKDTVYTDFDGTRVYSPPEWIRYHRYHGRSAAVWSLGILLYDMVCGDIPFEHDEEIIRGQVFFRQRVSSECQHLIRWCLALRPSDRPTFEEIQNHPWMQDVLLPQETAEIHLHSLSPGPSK
Mitogen-activated protein kinase kinase kinase 12 ; MAP3K12 ; Q12852, sequence (Q12852 whole entry): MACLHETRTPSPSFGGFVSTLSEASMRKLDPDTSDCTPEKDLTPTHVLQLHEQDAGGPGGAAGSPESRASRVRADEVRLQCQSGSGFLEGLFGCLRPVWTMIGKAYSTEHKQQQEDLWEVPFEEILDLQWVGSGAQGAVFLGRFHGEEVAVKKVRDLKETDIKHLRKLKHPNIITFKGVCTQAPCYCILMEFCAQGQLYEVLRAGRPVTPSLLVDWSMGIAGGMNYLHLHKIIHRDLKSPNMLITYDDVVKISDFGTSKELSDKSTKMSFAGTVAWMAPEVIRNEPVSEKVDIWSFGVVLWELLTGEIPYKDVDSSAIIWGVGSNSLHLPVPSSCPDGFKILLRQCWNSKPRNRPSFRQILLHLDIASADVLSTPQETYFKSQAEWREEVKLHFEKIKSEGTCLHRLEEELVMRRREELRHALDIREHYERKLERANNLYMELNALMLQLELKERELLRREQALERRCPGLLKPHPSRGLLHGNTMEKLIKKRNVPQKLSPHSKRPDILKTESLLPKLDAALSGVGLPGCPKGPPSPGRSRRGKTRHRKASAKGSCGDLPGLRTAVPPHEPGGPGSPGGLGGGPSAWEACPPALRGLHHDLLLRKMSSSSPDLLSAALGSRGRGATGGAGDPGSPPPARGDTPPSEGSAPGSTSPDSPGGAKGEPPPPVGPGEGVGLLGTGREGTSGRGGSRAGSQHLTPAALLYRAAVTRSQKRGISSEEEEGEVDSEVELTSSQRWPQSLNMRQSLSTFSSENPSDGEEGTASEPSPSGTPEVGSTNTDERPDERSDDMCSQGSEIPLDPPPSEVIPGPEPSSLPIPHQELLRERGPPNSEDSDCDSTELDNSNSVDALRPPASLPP
MAP/microtubule affinity-regulating kinase 3 ; MARK3 ; P27448, sequence (P27448 whole entry, one chain of several): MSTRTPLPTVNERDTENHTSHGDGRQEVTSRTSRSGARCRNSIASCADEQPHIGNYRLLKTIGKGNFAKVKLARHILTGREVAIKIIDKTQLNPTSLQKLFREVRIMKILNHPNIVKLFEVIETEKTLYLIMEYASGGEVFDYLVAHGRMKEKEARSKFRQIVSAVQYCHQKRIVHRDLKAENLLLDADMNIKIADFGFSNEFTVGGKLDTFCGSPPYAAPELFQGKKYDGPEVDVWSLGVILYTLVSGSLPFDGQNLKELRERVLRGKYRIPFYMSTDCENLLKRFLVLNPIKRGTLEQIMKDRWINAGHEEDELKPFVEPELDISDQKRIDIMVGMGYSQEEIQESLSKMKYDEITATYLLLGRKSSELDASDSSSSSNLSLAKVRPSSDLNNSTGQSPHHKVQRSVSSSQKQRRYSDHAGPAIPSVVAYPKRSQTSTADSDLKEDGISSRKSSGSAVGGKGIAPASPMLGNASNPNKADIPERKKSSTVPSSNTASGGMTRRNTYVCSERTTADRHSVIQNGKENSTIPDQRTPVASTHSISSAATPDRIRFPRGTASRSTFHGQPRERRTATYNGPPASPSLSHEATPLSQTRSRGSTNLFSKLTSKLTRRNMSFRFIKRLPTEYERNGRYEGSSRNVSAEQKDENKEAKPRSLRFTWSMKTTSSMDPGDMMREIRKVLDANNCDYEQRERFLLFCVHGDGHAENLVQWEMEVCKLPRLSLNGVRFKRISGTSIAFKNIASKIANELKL
Wee1-like protein kinase ; WEE1 ; P30291, sequence (P30291 whole entry, canonical isoform): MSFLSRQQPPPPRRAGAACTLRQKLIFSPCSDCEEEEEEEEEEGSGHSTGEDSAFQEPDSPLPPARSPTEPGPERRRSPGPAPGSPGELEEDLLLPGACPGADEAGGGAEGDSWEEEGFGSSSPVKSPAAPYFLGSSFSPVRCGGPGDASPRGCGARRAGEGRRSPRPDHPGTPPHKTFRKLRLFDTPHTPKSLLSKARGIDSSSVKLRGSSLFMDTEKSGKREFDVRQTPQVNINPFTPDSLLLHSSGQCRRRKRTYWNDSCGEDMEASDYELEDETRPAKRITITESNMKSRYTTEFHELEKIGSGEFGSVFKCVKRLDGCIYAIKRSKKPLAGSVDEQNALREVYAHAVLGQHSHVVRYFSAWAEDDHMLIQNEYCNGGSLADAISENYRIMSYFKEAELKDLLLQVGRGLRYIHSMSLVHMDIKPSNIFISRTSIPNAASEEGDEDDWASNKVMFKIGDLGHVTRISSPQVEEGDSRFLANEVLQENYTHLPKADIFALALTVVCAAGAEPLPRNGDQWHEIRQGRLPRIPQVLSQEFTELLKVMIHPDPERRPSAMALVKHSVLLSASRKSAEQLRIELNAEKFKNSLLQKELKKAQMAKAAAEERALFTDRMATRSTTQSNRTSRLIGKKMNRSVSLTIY
Beta-adrenergic receptor kinase 2 ; GRK3 ; P35626, sequence (P35626 whole entry): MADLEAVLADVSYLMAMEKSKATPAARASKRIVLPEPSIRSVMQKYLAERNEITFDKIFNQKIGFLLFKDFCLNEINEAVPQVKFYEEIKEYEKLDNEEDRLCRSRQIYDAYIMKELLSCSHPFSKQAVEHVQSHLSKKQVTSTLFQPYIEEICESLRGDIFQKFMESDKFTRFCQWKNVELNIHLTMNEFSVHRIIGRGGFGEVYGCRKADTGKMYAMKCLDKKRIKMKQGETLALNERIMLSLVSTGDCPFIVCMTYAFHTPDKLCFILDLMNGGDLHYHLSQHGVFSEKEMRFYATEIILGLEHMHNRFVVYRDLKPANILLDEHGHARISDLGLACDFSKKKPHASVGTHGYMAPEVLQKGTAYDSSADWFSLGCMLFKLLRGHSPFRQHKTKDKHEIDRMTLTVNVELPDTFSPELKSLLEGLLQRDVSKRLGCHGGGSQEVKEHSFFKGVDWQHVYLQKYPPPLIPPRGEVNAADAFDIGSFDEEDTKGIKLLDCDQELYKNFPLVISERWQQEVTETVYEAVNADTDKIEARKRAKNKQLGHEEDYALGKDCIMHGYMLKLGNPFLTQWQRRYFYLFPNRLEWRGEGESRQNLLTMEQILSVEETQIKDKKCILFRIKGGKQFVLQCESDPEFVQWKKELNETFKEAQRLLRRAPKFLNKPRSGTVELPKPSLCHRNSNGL

remaining activity at 10 µM [1, 21]: 95.9%
remaining activity at 10 µM [2, 21]: 96.1%
remaining activity at 10 µM [3, 21]: 100%
remaining activity at 10 µM [4, 21]: 109%
remaining activity at 10 µM [5, 21]: 102%
remaining activity at 10 µM [6, 21]: 108%
remaining activity at 10 µM [7, 21]: 110%
remaining activity at 10 µM [8, 21]: 83.7%
remaining activity at 10 µM [9, 21]: 100%
remaining activity at 10 µM [10, 21]: 108%
remaining activity at 10 µM [11, 21]: 110%
remaining activity at 10 µM [12, 21]: 123%
remaining activity at 10 µM [13, 21]: 113%
remaining activity at 10 µM [14, 21]: 128%
remaining activity at 10 µM [15, 21]: 97.1%
remaining activity at 10 µM [16, 21]: 85%
remaining activity at 10 µM [17, 21]: 104%
remaining activity at 10 µM [18, 21]: 115%
remaining activity at 10 µM [19, 21]: 55.3%
remaining activity at 10 µM [20, 21]: 98.1%
SMILES: COc1cc(F)ccc1-c1cc(Nc2cc(CS(C)(=N)=O)ccn2)ncc1F (stereo not shown) [BAY-1251152]

remaining activity at 10 µM [1, 22]: 91.5%
remaining activity at 10 µM [2, 22]: 102%
remaining activity at 10 µM [3, 22]: 96.8%
remaining activity at 10 µM [4, 22]: 114%
remaining activity at 10 µM [5, 22]: 101%
remaining activity at 10 µM [6, 22]: 106%
remaining activity at 10 µM [7, 22]: 106%
remaining activity at 10 µM [8, 22]: 88.8%
remaining activity at 10 µM [9, 22]: 106%
remaining activity at 10 µM [10, 22]: 90.7%
remaining activity at 10 µM [11, 22]: 124%
remaining activity at 10 µM [12, 22]: 125%
remaining activity at 10 µM [13, 22]: 115%
remaining activity at 10 µM [14, 22]: 141%
remaining activity at 10 µM [15, 22]: 96.5%
remaining activity at 10 µM [16, 22]: 80.9%
remaining activity at 10 µM [17, 22]: 115%
remaining activity at 10 µM [18, 22]: 103%
remaining activity at 10 µM [19, 22]: 97.6%
remaining activity at 10 µM [20, 22]: 100%
SMILES: COc1cc(F)ccc1-c1ncnc(Nc2cccc(C[S@](C)(=N)=O)c2)n1 [BAY-1143572]
